Results reported in patent US8735590B2, “Bicyclo-heptan-2-amines” (priority 2011, dated 2014).

Columns and labels:
MDCK cells = assay: MTT cell viability assay in MDCK cells; format: cell-based, canine; details: 10-500 μM, FIG. 3A
Excerpt: (§1) We evaluated the effect of compounds 5a, 5b and 5c on cell viability in the neuronal cell line N2a and in the Madin-Darby canine kidney (MDCK) cell line, a blood-brain barrier model. Memantine, an NMDA glutamate receptor antagonist, was used as a negative control.
(§2) Mouse Neuro-2a (CCL-131, ATCC) and MDCK (CCL-34, ATCC) were routinely propagated using Eagle's Minimum Essential Medium (EMEM, ATCC), supplemented with 10% fetal bovine serum (FBS, ATCC) and 1% penicillin/streptomycin (Gibco) in 100 cm^2 Petri-dishes (Corning) at 37° C. in 5% CO2. Compounds 5a, 5b and 5c were obtained as salts. Stock solutions (1 mM) were prepared in double distilled water. The treatment concentrations for the compounds and the memantine control were 10, 50, 100, 200, 300, and 500 μM. Cells were allowed to attach overnight prior to treatment. H2O2 served as positive control. Working concentrations were prepared immediately prior to treatment by dilution into medium.
(§3) Cell viability was assayed using the MTT (3-(4,5-dimethylthiazole-2-yl)-2,5-diphenyltetrazoliumbromide) assay (ATCC) according to manufacturer's instructions. Cells were plated at a concentration of 13,000 to 20,000 cells/well on a 96-well round-bottom plate. MTT assay. The following determinants were optimized for each cell line: plating cell concentration; incubation time with MTT reagent, and incubation time with detergent reagent. Absorbance was recorded at 570 nm by a microtiter plate reader (VICTOR^3, PerkinElmer). This experiment was repeated on three separate occasions and results were presented as the mean absorbance±SD.

N2a cells = assay: MTT cell viability assay in N2a cells; format: cell-based, Mouse; details: 10-500 μM, FIG. 4A
Excerpt: as §1, §2, §3

MCF-7 cells = assay: MTT cell viability assay in MCF-7 breast carcinoma cells; format: cell-based, human; details: 24 hours; for percent survival of untreated control cells: MTT; for effect on cell viability in MCF-7 cells: MTT assay, 10 μM to 500 μM, FIG. 6
Experimental: (§4) We also evaluated the effect of compounds 5a, 5b and 5c on the human glioma cell line U-138 and the human breast carcinoma cell line MCF-7. Doxorubicin, a clinically used anticancer compound, served as a positive control.
(§5) Cell viability was assayed using the MTT assay essentially as described in Example 8. Adherent cells were trypsinized and placed into 96-well flat bottom tissue culture plates in 100 μl of supplemented Dulbecco's Modified Eagles Media (DMEM) at 10,000 cells/well for 24 hours. Cells were treated with the compounds for 24 hours at concentrations ranging from 10 μM to 500 μM. Cells were incubated with MTT reagent for 4 hours followed with MTT detergent for 24 hours. Plates were read on a computerized microplate ELISA reader at an optical density of 570 nm. The percent cytotoxicity was determined by the ratio of treated optical densities to control optical densities (OD) from one and multiplying by 100. The concentration giving 50% cytotoxicity, IC50, was determined from the dose response curves for each cell line using the GraphPad Prism software package. Each experiment was performed three separate times and the data presented are the pooled results of the three experiments.

U-138 glioma cells = assay: MTT cell viability assay in U-138 glioma cells; format: cell-based, human; details: 24 hours, 10 μM to 500 μM, FIG. 5
Experimental: as §4, §5

Sigma-1 receptor = molecular target: T1, Sigma-1 receptor (Rattus norvegicus, UniProt Q9R0C9); assay: NIMH-PDSP receptor binding, Sigma-1 (radioligand Pentazocine(+), brain)
T1 construct: from tissue; NIMH-PDSP)
T1 sequence (Q9R0C9 whole entry): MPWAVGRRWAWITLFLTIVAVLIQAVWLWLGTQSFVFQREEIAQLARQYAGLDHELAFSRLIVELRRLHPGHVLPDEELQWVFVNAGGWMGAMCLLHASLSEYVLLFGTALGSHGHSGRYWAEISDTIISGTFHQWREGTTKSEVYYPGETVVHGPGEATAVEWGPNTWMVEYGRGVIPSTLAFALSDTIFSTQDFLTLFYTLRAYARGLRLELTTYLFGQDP
Experimental: (§6) Compounds 5a, 5b and 5c were accepted into the National Institute of Mental Health Psychoactive Drug Screening Program, NIMH-PDSP, National Institutes of Health (NIH). Each compound was evaluated for affinity at human or rat receptors. Sites to be evaluated were chosen based on known or suspected sites of interaction with related compounds. The receptors evaluated, radio-labeled ligand, species and receptor source are depicted in Table 1. Experimental details and procedure can be found through Assay Protocol Book, National Institute of Mental Health Psychoactive Drug Screening Program, University of North Carolina at Chapel Hill.

Sigma-2 receptor = molecular target: T2, Sigma-2 receptor (Rattus norvegicus, UniProt Q5U3Y7); assay: NIMH-PDSP receptor binding, Sigma-2 (radioligand DTG, PC12)
T2 construct: endogenous in cells
T2 sequence (Q5U3Y7 1-176): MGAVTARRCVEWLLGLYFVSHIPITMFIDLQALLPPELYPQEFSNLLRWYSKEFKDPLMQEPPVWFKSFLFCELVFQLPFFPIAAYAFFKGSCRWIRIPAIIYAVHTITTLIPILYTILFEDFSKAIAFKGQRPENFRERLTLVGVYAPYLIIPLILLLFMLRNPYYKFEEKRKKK
Experimental: as §6

MES-induced seizures = assay: Maximal Electroshock Test (MES), tonic-clonic seizure model; format: in vivo; details: mice
Experimental: Compounds 5a, 5b and 5c were evaluated in for the ability to modulate seizures using the Maximal Electroshock Test (MES), a model for generalized tonic-clonic seizures that can provide an indication of a compound's ability to prevent seizure spread when all neuronal circuits in the brain are maximally active. For all tests based on MES convulsions, 60 Hz of alternating current (50 mA in mice) was delivered for […] by corneal electrodes which had been primed with an electrolyte solution containing an anesthetic agent (0.5% tetracaine HCL). Mice were tested at various intervals following doses of 30, 100 and 300 mg/kg of test compound given by i.p. injection of a volume of 0.01 mUg. An animal was considered “protected” from MES-induced seizures upon abolition of the hindlimb tonic extensor component of the seizure. Compound 5c was active at 100 and 300 mg/kg.

SMILES	effect on cell viability in MDCK cells (MDCK cells)	effect on cell viability in N2a cells (N2a cells)	percent survival of untreated control cells (MCF-7 cells; 200 μM) [%]	percent survival of untreated control cells (MCF-7 cells; 300 μM) [%]	percent survival of untreated control cells (MCF-7 cells; 500 μM) [%]	effect on cell viability in MCF-7 cells (MCF-7 cells)	effect on cell viability in U-138 glioma cells (U-138 glioma cells)	Ki (Sigma-1 receptor) [nM]	Ki (Sigma-2 receptor) [nM]	activity in MES test (protection from MES-induced seizures) (MES-induced seizures; 100 mg/kg i.p.)	activity in MES test (protection from MES-induced seizures) (MES-induced seizures; 300 mg/kg i.p.)
Fc1ccc(C2(NCCCN3CCCCC3)CC3CCC2C3)cc1 (racemic) [Compound 5b, (±)-2-(4-Fluorophenyl)-N-(3-(piperidin-1-yl)propyl)bicyclo[2.2.1]heptan-2-amine]	minimal effects on cell viability	dose-dependent reduction in cell viability	70	63	16	dose-dependent reduction in cell viability	dose-dependent effect on cell viability	> 10000	16		
Fc1ccc(C2(NCCCOC3CCCCO3)CC3CCC2C3)cc1 (racemic) [Compound 5c, 2-(4-Fluorophenyl)-N-(3-(tetrahydro-2H-pyran-2-yloxy)propyl)bicyclo[2.2.1]heptan-2-amine]	minimal effects on cell viability	dose-dependent reduction in cell viability				dose-dependent reduction in cell viability		> 10000	5.5	active	active
c1ccc(C2(NCCCN3CCCCC3)CC3CCC2C3)cc1 (racemic) [Compound 5a, (±)-2-Phenyl-N-(3-(piperidin-1-yl)propyl)bicyclo[2.2.1]heptan-2-amine]	minimal effects on cell viability	dose-dependent reduction in cell viability				dose-dependent reduction in cell viability		> 10000	9.6		
